Patent EP1001761B1, “USE OF CHOL[…] TREATING ATTENTION DEFICIT DISORDERS” (priority 1997, dated 1999)
Structures can show the parent of a compound that is named as a salt.

What was measured:
patients with ADD = assay: treatment of two ADD patients, measured by ANT (Amsterdam Neuropsychological Tests), reaction times for different tasks; format: in vivo; settings: for After: mean / After: miss (Missed task) / After: Fa (Failed attempt): after treatment
Source text: The protocol in this case is first a baseline testing before medication and retesting after 2 days on medication and then after a week repeated testing. Ecological scales were also used before and are now being evaluated after one week after two weeks etc. for a treatment of one month duration.

solubility in water = format: physicochemical; settings: room temperature
Procedure: Galantamine and its acid addition salts form crystals. […] If necessary, pharmaceutically-acceptable suspension aids may be employed. Typically, such a suspension will be employed at a concentration of 0.1-50 mg/ml, such as 1-50 mg/ml, more commonly 5-40 mg/ml, for example, 5-30 mg/ml or 10-40 mg/ml, such as 10-30 mg/ml, especially 20-30 mg/ml of galantamine.

Structure (SMILES)	improvement in attention (reduction in time to complete certain tasks and with fewer errors), normalized data, error analysis (patients with ADD; two patients, 2.5 mg 3 times a day)	solubility in water (solubility in water)	After: mean (patients with ADD; Patient A, task Baseline)	After: mean (patients with ADD; Patient A, task Focused Att.)	After: miss (Missed task) (patients with ADD; Patient A, task Focused Att.)	After: Fa (Failed attempt) (patients with ADD; Patient A, task GoNoGo)	After: mean (patients with ADD; Patient A, task GoNoGo)	After: miss (Missed task) (patients with ADD; Patient A, task GoNoGo)	After: Fa (Failed attempt) (patients with ADD; Patient A, task Sustained Att.)	After: mean (patients with ADD; Patient A, task Sustained Att.)	After: miss (Missed task) (patients with ADD; Patient A, task Sustained Att.)	After: mean (patients with ADD; Patient B, task Baseline)	After: mean (patients with ADD; Patient B, task Focused Att.)	After: miss (Missed task) (patients with ADD; Patient B, task Focused Att.)	After: Fa (Failed attempt) (patients with ADD; Patient B, task GoNoGo)	After: mean (patients with ADD; Patient B, task GoNoGo)	After: miss (Missed task) (patients with ADD; Patient B, task GoNoGo)	After: Fa (Failed attempt) (patients with ADD; Patient B, task Sustained Att.)	After: mean (patients with ADD; Patient B, task Sustained Att.)	After: miss (Missed task) (patients with ADD; Patient B, task Sustained Att.)
COc1ccc2c3c1O[C@H]1C[C@@H](O)C=C[C@@]31CCN(C)C2 [galantamine hydrobromide]	over 2.5 standard deviations	–	–	–	–	–	–	–	–	–	–	–	–	–	–	–	–	–	–	–
COc1ccc2c3c1O[C@H]1C[C@@H](O)C=C[C@@]31CCN(C)C2 [galantamine]	–	only sparingly soluble	727 ms	1352 ms	0	2	655 ms	1	6	1222 ms	4	780 ms	1166 ms	3	3	766 ms	3	50	1152 ms	20
